Patent US11999727B2 (Tango Therapeutics, Inc., priority 2020, dated 2024)

Assays:
PRMT5 [1] = biological target: T1, PRMT5 (Homo sapiens, UniProt O14744); assay: PRMT5 biochemical IC50 assay with SAM as cofactor; details: PRMT5, SAM as cofactor; read-out: SAM IC50
T1 construct: purchased Viva (custom protein)

PRMT5 [2] = biological target: T1, PRMT5; assay: PRMT5 biochemical IC50 assay with no cofactor; details: PRMT5, no cofactor
Excerpt: Table 1 indicates IC50 values (μM) against PRMT5 for exemplary compounds in the presence of SAM as cofactor, with no cofactor, and with MTA as cofactor, respectively (columns 4-6). […] Ki values can be calculated from the IC50 values as described in the Examples section. As detailed in the Examples section, for the assay performed in the presence of SAM, IC50=Ki×1.5 (Ki=IC50/1.5).

PRMT5 [3] = biological target: T1, PRMT5; assay: PRMT5 biochemical IC50 assay with MTA as cofactor; details: PRMT5, MTA as cofactor; read-out: MTA IC50
[4] = test system: HAP1 MTAP-intact cell line; assay: SDMA in-cell western assay, HAP1 MTAP-intact; assay type: cell-based; details: Homo sapiens, HAP1, SDMA in-cell western, HAP1 MTAP-intact; read-out: MTAP HAP1 intact IC50
How it was run: (§1)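 IC50 values come from SDMA signal quantified by in-cell western in two HAP1 lines, one with native MTAP levels and one lacking MTAP.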

[5] = test system: HAP1 MTAP-deleted cell line; assay: SDMA in-cell western assay, HAP1 MTAP-deleted; assay type: cell-based; details: for IC50: Homo sapiens, HAP1, SDMA in-cell western, HAP1 MTAP-deleted; for MTAP intact/deleted ratio: SDMA in-cell western
How it was run: as §1

[6] = test system: HAP1 MTAP-deleted cell line; assay: Viability assay, MTAP-deleted cell line; assay type: cell-based; details: Homo sapiens, read-out: HAP1 MTAP deleted viability
Excerpt: Table 1 additionally indicates IC50 values in a viability assay for the MTAP-deleted cell line (column 10), indicating the effect of treatment with compound on cell survival.

[7] = read-out: HAP1 MTAP deleted IC50
[8] = IC50 ratio HAP1 MTAP-intact / HAP1 MTAP-deleted
[9] = HAP1, viability assay, MTAP-deleted cell line
[10] = IC50 ratio HAP1 MTAP-intact vs HAP1 MTAP-deleted
[11] = HAP1, viability assay, HAP1 MTAP-deleted
[12] = read-out: HAP 1 MTAP deleted IC50
[13] = HAP1, viability IC50, MTAP-deleted cell line
[14] = read-out: No Cofactor/ rel IC50
[15] = HAP1, viability, HAP1 MTAP-deleted cell line

T1 sequence (O14744 whole entry): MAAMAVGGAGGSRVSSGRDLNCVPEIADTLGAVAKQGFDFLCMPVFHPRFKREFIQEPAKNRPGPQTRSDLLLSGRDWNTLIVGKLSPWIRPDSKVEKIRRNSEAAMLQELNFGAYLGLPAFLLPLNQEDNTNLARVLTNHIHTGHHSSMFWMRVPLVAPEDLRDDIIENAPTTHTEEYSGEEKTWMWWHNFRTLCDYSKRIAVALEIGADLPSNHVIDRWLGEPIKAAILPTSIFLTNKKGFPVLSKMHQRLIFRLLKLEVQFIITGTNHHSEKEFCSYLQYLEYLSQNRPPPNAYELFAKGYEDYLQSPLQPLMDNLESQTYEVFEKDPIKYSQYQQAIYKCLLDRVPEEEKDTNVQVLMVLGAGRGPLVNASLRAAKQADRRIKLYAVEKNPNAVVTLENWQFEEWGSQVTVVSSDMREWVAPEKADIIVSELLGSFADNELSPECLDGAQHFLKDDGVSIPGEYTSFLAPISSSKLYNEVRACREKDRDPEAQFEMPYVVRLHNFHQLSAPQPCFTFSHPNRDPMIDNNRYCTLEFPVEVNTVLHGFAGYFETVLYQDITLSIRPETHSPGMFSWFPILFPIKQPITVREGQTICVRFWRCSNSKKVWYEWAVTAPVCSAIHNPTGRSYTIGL
T1 sequence (Q9BQA1 whole entry partner): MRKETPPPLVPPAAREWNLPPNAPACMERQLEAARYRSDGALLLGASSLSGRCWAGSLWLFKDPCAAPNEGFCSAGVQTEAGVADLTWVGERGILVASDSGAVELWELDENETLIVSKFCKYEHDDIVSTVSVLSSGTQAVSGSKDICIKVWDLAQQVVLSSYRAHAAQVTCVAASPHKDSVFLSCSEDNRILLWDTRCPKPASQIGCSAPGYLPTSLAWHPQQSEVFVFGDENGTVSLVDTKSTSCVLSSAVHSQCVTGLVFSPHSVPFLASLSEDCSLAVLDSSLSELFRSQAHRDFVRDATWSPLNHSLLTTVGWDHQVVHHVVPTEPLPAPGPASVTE

Row | SMILES | IC50 (PRMT5 [1]) | IC50 (PRMT5 [2]; read-out: No Cofactor/rel IC50) | IC50 (PRMT5 [3]) | IC50 [4] | IC50 [5, 7] | MTAP intact/deleted ratio [5, 8] | IC50 [6, 9] | MTAP intact/deleted ratio [5, 10] | IC50 [6, 11] | IC50 [5, 12] | IC50 [6, 13] | IC50 (PRMT5 [2]; [14]) | IC50 [6, 15]
1 | NC(=O)c1cncc(NC(=O)C(=O)N2CCC3(CCOCC3)CC2)c1 [Compound 191, 5-[[2-(3-Oxa-9-azaspiro[5.5]undecan-9-yl)-2-oxo-acetyl]amino]pyridine-3-carboxamide] | > 500 nM | > 500 nM | 50 to 500 nM | > 1000 nM | > 1000 nM | C (an IC50 ratio of less than 3 fold) | > 10000 nM | – | – | – | – | – | –
2 | CCc1cc(NC(=O)C(=O)N2C[C@@H](C)CC[C@@H]2c2ccc(N3CCC(CN(C)CC)CC3)cc2)cnc1N [Compound 1232, N-(6-Amino-5-ethylpyridin-3-yl)-2-[(2R,5S)-2-[4-(4-{[ethyl(methyl)amino]methyl}piperidin-1-yl)phenyl]-5-methylpiperidin-1-yl]-2-oxoacetamide] | 50 to 500 nM | < 50 nM | < 50 nM | 100 to 1000 nM | < 100 nM | – | < 1000 nM | A (an IC50 ratio greater than or equal to 10 fold) | – | – | – | – | –
3 | CC(=O)Nc1ccc([C@@H]2CC[C@@H](C)CN2C(=O)C(=O)Nc2cnc(N)c(C)c2)s1 (single isomer, unassigned) [Compound 732] | 50 to 500 nM | 50 to 500 nM | < 50 nM | > 1000 nM | 100 to 1000 nM | A (an IC50 ratio greater than or equal to 10 fold) | – | – | 1000 to 10000 nM | – | – | – | –
4 | Cc1ncc(NC(=O)C(=O)N2C[C@H](C)CC[C@H]2c2ccc3c(c2)CCC(=O)N3)cc1C(F)(F)F (single isomer, unassigned) [Compound 697] | 50 to 500 nM | < 50 nM | < 50 nM | > 1000 nM | – | A (an IC50 ratio greater than or equal to 10 fold) | – | – | – | < 100 nM | < 1000 nM | – | –
5 | CCc1cc(NC(=O)C(=O)N2C[C@@H](C)CC[C@@H]2c2ccc3sc([C@@H]4[C@@H]5CN(C)C[C@@H]54)nc3c2)cnc1N [Compound 1366, N-(6-amino-5-ethylpyridin-3-yl)-2-((2R,5S)-5-methyl-2-(2-((1R,5S,6s)-3-methyl-3-azabicyclo[3.1.0]hexan-6-yl)benzo[d]thiazol-5-yl)piperidin-1-yl)-2-oxoacetamide] | < 50 nM | – | < 50 nM | < 100 nM | – | A (an IC50 ratio greater than or equal to 10 fold) | – | – | – | < 100 nM | – | < 50 nM | < 1000 nM
6 | C[C@H]1CC[C@H](c2ccc3sccc3c2)N(C(=O)C(=O)Nc2cncc(C(N)=O)c2)C1 (single isomer, unassigned) [Compound 585] | < 50 nM | < 50 nM | < 50 nM | 100 to 1000 nM | – | A (an IC50 ratio greater than or equal to 10 fold) | – | – | – | < 100 nM | < 1000 nM | – | –
7 | CCc1cc(NC(=O)C(=O)N2C[C@@H](C)CC[C@@H]2c2cccc(C[C@H]3CCCCN3C)c2)cnc1N (single isomer, unassigned) [Compound 1273] | 50 to 500 nM | – | < 50 nM | 100 to 1000 nM | – | A (an IC50 ratio greater than or equal to 10 fold) | – | – | – | < 100 nM | – | < 50 nM | < 1000 nM
8 | Cc1cc(NC(=O)C(=O)N2C[C@H](C)CC[C@H]2c2ccc(-c3nccs3)cn2)cnc1N (racemic) [Compound 991] | 50 to 500 nM | 50 to 500 nM | 50 to 500 nM | > 1000 nM | – | C (an IC50 ratio of less than 3 fold) | 1000 to 10000 nM | – | – | 100 to 1000 nM | – | – | –
9 | COc1ncc(NC(=O)C(=O)N2C[C@@H](C)CC[C@@H]2c2ccc3sc(CCN4CCCC4)nc3c2)cc1C(N)=O [Compound 1288, 2-methoxy-5-(2-((2R,53)-5-methyl-2-(2-(2-(pyrrolidin-1-yl)ethyl)benzo[d]thiazol-5-yl)piperidin-1-yl)-2-oxoacetamido)nicotinamide] | 50 to 500 nM | – | < 50 nM | 100 to 1000 nM | – | A (an IC50 ratio greater than or equal to 10 fold) | – | – | – | < 100 nM | – | 50 to 500 nM | < 1000 nM
10 | C[C@H]1CC[C@H](c2cccc(N(C)C)c2)N(C(=O)C(=O)Nc2cncc(C(N)=O)c2)C1 (single isomer, unassigned) [Compound 374] | > 500 nM | > 500 nM | > 500 nM | > 1000 nM | > 1000 nM | C (an IC50 ratio of less than 3 fold) | > 10000 nM | – | – | – | – | – | –
11 | Cc1cc(NC(=O)C(=O)N2CCCCC2C2CCCCC2)cnc1N (stereo not shown) [Compound 30, N-(6-amino-5-methyl-3-pyridyl)-2-[2-cyclohexyl-1-piperidyl]-2-oxo-acetamide] | 50 to 500 nM | – | 50 to 500 nM | > 1000 nM | – | A (an IC50 ratio greater than or equal to 10 fold) | > 10000 nM | – | – | 100 to 1000 nM | – | 50 to 500 nM | –
12 | Cc1cc(NC(=O)C(=O)N2C[C@@H](C)CC[C@@H]2c2ccc3sc(C4CN(C)C4)nc3c2)cnc1C [Compound 1123, N-(5,6-dimethylpyridin-3-yl)-2-((2R,5S)-5-methyl-2-(2-(1-methylazetidin-3-yl)benzo[d]thiazol-5-yl)piperidin-1-yl)-2-oxoacetamide] | < 50 nM | < 50 nM | < 50 nM | 100 to 1000 nM | < 100 nM | – | < 1000 nM | A (an IC50 ratio greater than or equal to 10 fold) | – | – | – | – | –
13 | COc1ncc(NC(=O)C(=O)N2C[C@@H](C)CC[C@@H]2c2ccc3[nH]ncc3c2)cc1C(N)=O (single isomer, unassigned) [Compound 464] | 50 to 500 nM | < 50 nM | < 50 nM | 100 to 1000 nM | < 100 nM | A (an IC50 ratio greater than or equal to 10 fold) | < 1000 nM | – | – | – | – | – | –
14 | COc1ncc(NC(=O)C(=O)N2C[C@@H](C)CC[C@@H]2c2ccc3c(c2)CC(=O)N3)cc1C(N)=O (single isomer, unassigned) [Compound 454] | 50 to 500 nM | < 50 nM | < 50 nM | 100 to 1000 nM | < 100 nM | A (an IC50 ratio greater than or equal to 10 fold) | < 1000 nM | – | – | – | – | – | –
15 | Cc1cc(NC(=O)C(=O)N2CCCCC2C2CCC(F)(F)CC2)cnc1N (stereo not shown) [Compound 186, N-(6-amino-5-methyl-3-pyridyl)-2-[2-(4,4-difluorocyclohexyl)-1-piperidyl]-2-oxo-acetamide] | 50 to 500 nM | 50 to 500 nM | 50 to 500 nM | > 1000 nM | 100 to 1000 nM | A (an IC50 ratio greater than or equal to 10 fold) | > 10000 nM | – | – | – | – | – | –
16 | CC(=O)Oc1ccc([C@@H]2CC[C@@H](C)CN2C(=O)C(=O)Nc2cncc(C(N)=O)c2)cc1 (single isomer, unassigned) [Compound 599, 4-(1-(2-((5-carbamoylpyridin-3-yl)amino)-2-oxoacetyl)-5-methylpiperidin-2-yl)phenyl acetate] | > 500 nM | > 500 nM | > 500 nM | > 1000 nM | – | B (an IC50 ratio greater than or equal to 3 fold but lower than 10 fold) | – | – | – | > 1000 nM | > 10000 nM | – | –
17 | CCc1cc(NC(=O)C(=O)N2C[C@H](C)CC[C@H]2c2ccc3[nH]c(=O)ccc3c2)cnc1N (single isomer, unassigned) [Compound 819] | > 500 nM | > 500 nM | > 500 nM | > 1000 nM | 100 to 1000 nM | A (an IC50 ratio greater than or equal to 10 fold) | – | – | 1000 to 10000 nM | – | – | – | –
18 | C[C@H]1CC[C@H](c2ccc(O)nc2)N(C(=O)C(=O)Nc2cncc(C(N)=O)c2)C1 (single isomer, unassigned) [Compound 350] | 50 to 500 nM | 50 to 500 nM | < 50 nM | > 1000 nM | > 1000 nM | C (an IC50 ratio of less than 3 fold) | > 10000 nM | – | – | – | – | – | –
19 | CCc1cc(NC(=O)C(=O)N2C[C@@H](C)CC[C@@H]2c2ccc(F)cc2)cnc1N (racemic) [Compound 710, N-(6-amino-5-ethylpyridin-3-yl)-2-(2-(4-fluorophenyl)-5-methylpiperidin-1-yl)-2-oxoacetamide] | 50 to 500 nM | < 50 nM | < 50 nM | > 1000 nM | < 100 nM | A (an IC50 ratio greater than or equal to 10 fold) | – | – | < 1000 nM | – | – | – | –
